Results on 15 compounds are retold here after ChEMBL document CHEMBL1145235, “Optimization of pyrrolidinone based HIV protease inhibitors” (Bioorg Med Chem Lett, 2005).

Assay [1] deals with MT4. Put plainly: Antiviral inhibitory concentration against human immunodeficiency virus type 1 in MT-4 cell culture. It counts as functional, cell-based.
The target of assay [2] is Human immunodeficiency virus type 1 protease (Human immunodeficiency virus 1, UniProt Q72874). The assay can be described thus: Inhibition constant against HIV Protease.

For the compound `COCCOCCOc1ccc(C[C@H](CC(=O)CN2C(=O)[C@@H](Cc3ccccc3)C[C@@H]2Cc2ccccc2)C(=O)NC2c3ccccc3C[C@H]2O)cc1` (some centres undefined), the IC50 (usually the concentration that inhibits the measured activity by half) in assay [1] was found to be 93 nM. For the same compound, the affinity in assay [2] corresponds to a Ki of 0.02 nM. For `CN1CCN(C(=O)COc2ccc(C[C@H](CC(=O)CN3C(=O)[C@@H](Cc4ccccc4)C[C@@H]3Cc3ccccc3)C(=O)NC3c4ccccc4C[C@H]3O)cc2)CC1` (some centres undefined) the same measures were 130 nM and 0.05 nM. `O=C(C[C@@H](Cc1ccccc1)C(=O)NC1c2ccccc2C[C@H]1O)CN1C(=O)[C@@H](Cc2ccccc2)C[C@@H]1Cc1ccc(OCc2ccccc2)cc1` (some centres undefined) had an IC50 in assay [1] of 550 nM. Besides, affinity in assay [2] was put at a Ki of 0.13 nM. Compound `O=C(C[C@@H](Cc1ccc(OCCN2CCOCC2)cc1)C(=O)NC1c2ccccc2C[C@H]1O)CN1C(=O)[C@@H](Cc2ccccc2)C[C@@H]1Cc1ccccc1` (some centres undefined) had a 50% inhibitory concentration (IC50) in assay [1] of 83 nM. Moreover, the affinity in assay [2], expressed as Ki, was 0.14 nM. For `NC(=O)COc1ccc(C[C@H](CC(=O)CN2C(=O)[C@@H](Cc3ccccc3)C[C@@H]2Cc2ccccc2)C(=O)NC2c3ccccc3C[C@H]2O)cc1` (some centres undefined) the same measures were 360 nM and 0.07 nM. Taken in the same sequence, the figures for `O=C(C[C@@H](Cc1ccccc1)C(=O)NC1c2ccccc2C[C@H]1O)CN1C(=O)[C@@H](Cc2ccccc2)C[C@@H]1Cc1ccccc1` (some centres undefined) were 720 nM and 0.05 nM.

On to `O=C(C[C@@H](Cc1ccccc1)C(=O)NC1c2ccccc2C[C@H]1O)CN1C(=O)[C@@H](Cc2ccccc2)C[C@@H]1Cc1ccc(OCCO)cc1` (some centres undefined), for which 480 nM corresponded to half-maximal inhibition in assay [1] (IC50). In addition, in assay [2], the Ki – broadly, a measure of affinity in units of concentration, obtained from inhibition or displacement – came out at 0.3 nM. Taken in the same sequence, the figures for `O=C(C[C@@H](Cc1ccc(OCc2ccccn2)cc1)C(=O)NC1c2ccccc2C[C@H]1O)CN1C(=O)[C@@H](Cc2ccccc2)C[C@@H]1Cc1ccccc1` (some centres undefined) were 380 nM and 0.07 nM. For `O=C(C[C@@H](Cc1ccc(OCc2ccccc2)cc1)C(=O)NC1c2ccccc2C[C@H]1O)CN1C(=O)[C@@H](Cc2ccccc2)C[C@@H]1Cc1ccccc1` (some centres undefined) the same measures were 920 nM and 0.11 nM. `O=C(C[C@@H](Cc1ccc(O)cc1)C(=O)NC1c2ccccc2C[C@H]1O)CN1C(=O)[C@@H](Cc2ccccc2)C[C@@H]1Cc1ccccc1` (some centres undefined): the midpoint of inhibition in assay [1], the IC50, lay at 320 nM. The Ki in assay [2] came out at 0.06 nM. For `O=C(C[C@@H](Cc1ccccc1)C(=O)NC1c2ccccc2C[C@H]1O)CN1C(=O)[C@@H](Cc2ccccc2)C[C@@H]1Cc1ccc(OCCN2CCOCC2)cc1` (some centres undefined) the same measures were 960 nM and 1.3 nM. For `O=C(C[C@@H](Cc1ccccc1)C(=O)NC1c2ccccc2C[C@H]1O)CN1C(=O)[C@@H](Cc2ccccc2)C[C@@H]1Cc1ccc(OCC(=O)N2CCOCC2)cc1` (some centres undefined) the same measures were 200 nM and 0.1 nM. For `O=C(C[C@@H](Cc1ccc(OCC(=O)N2CCOCC2)cc1)C(=O)NC1c2ccccc2C[C@H]1O)CN1C(=O)[C@@H](Cc2ccccc2)C[C@@H]1Cc1ccccc1` (some centres undefined) the same measures were 63 nM and 0.02 nM.

For the compound `O=C(C[C@@H](Cc1ccccc1)C(=O)NC1c2ccccc2C[C@H]1O)CN1C(=O)[C@@H](Cc2ccccc2)C[C@@H]1Cc1ccc(O)cc1` (some centres undefined), the midpoint of inhibition in assay [1], the IC50, lay at 200 nM. In assay [1], `O=C(C[C@@H](Cc1ccc(OCCO)cc1)C(=O)NC1c2ccccc2C[C@H]1O)CN1C(=O)[C@@H](Cc2ccccc2)C[C@@H]1Cc1ccccc1` (some centres undefined) gave an IC50 of 94 nM. Further, in assay [2], the Ki was 0.02 nM.
